What was measured:
Assay type in all cases: biochemical
[1] = biological target: T1, Human recombinant fibroblast collagenase (collagenase-1) (Homo sapiens, UniProt P03956); experiment: Collagenase-1 inhibitory activity (bovine type I collagen digestion, Coomasie blue); settings: 2 hours at 35° C., read-out: IC50 for inhibition of collagenase-1 activity
T1 sequence (P03956 100-469): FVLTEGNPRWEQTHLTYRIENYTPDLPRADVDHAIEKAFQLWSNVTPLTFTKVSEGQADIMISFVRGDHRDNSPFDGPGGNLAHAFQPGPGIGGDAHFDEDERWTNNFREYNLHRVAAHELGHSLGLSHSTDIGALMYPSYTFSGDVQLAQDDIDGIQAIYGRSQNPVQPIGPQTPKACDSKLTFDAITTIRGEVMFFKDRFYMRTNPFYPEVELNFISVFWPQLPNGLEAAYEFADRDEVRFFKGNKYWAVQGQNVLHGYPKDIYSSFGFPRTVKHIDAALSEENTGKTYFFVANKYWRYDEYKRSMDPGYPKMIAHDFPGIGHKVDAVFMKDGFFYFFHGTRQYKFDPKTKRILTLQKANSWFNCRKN
Experimental: Collagenase -1 inhibitory activity is determined as follows: ninety six-well, flat-bottom microtiter plates are first coated with bovine type I collagen (35 ug/well) over a two-day period at 30° C. using a humidified and then dry atmosphere; plates are rinsed, air dried for 3-4 hours, sealed with Saran wrap and stored in a refrigerator. Human recombinant fibroblast collagenase and a test compound (or buffer) are added to wells (total volume=0.1 ml) and plates are incubated for 2 hours at 35° C. under humidified conditions; the amount of collagenase used per well is that causing approximately 80% of maximal digestion of collagen. The incubation media are removed from the wells, which are then rinsed with buffer, followed by water. […] Sodium dodecyl sulfate (20% in 50% dimethylformamide in water) is added to solubilize the remaining stained collagen and the optical density at 570 nm wave length is measured. The decrease in optical density due to collagenase (from that of collagen without enzyme) is compared to the decrease in optical density due to the enzyme in the presence of test compound, and percent inhibition of enzyme activity is calculated. IC50 's are determined from a range of concentrations of inhibitors (4-5 concentrations, each tested in triplicate), and KI values are calculated. […]

collagenase-3 = collagenase-3 (Homo sapiens, UniProt P45452); experiment: Collagenase-3 inhibitory activity (fluorescent substrate MCA-Pro-Leu-Gly-Dpa-Ala-Arg-NH2); settings: room temperature, 10 minutes preincubation, fluorescence; read-out: IC50 for inhibition of collagenase-3 activity
Experimental: Collagenase-3 inhibitory activity is determined as follows:
[…] solutions of substrate (MCA-Pro-Leu-Gly-Dpa-Ala-Arg-NH2, J. Biol. Chem. 271, 1544-1550, 1996) and 10 nM stock solution of inhibitor are prepared in DMSO. They are diluted with assay buffer ([…] at pH 7.5 containing 10 mM CaCl2, 0.002% sodium azide) as needed. Recombinant pro-collagenase-3 is activated with 1 mM APMA, and stored in the assay buffer after extensive dialysis in the assay buffer. Recombinant enzyme solution (0.05 ml, 1.3 nM) is mixed with 0.05 mL of inhibitor solution at various concentrations for 10 minutes at room temperature. Then 0.025 mL of 8 μM substrate solution is added and fluorescence (λex=325; λem=405) is continuously measured at room temperature. The percent inhibition of collagenase-3 activity is determined from the effect of inhibitor at various concentrations on the change in fluorescence; the IC50 is determined graphically.
Compounds of formula I have an IC50 of about 5 nM to about 100 nM for inhibition of collagenase-3 activity.

[2] = biological target: recombinant human stromelysin (Homo sapiens, UniProt P08254); experiment: inhibition of stromelysin activity (hydrolysis of Substance P, HPLC); settings: Substance P substrate, 30 minutes at 37° C.
recombinant human stromelysin, sequence (P08254 100-477): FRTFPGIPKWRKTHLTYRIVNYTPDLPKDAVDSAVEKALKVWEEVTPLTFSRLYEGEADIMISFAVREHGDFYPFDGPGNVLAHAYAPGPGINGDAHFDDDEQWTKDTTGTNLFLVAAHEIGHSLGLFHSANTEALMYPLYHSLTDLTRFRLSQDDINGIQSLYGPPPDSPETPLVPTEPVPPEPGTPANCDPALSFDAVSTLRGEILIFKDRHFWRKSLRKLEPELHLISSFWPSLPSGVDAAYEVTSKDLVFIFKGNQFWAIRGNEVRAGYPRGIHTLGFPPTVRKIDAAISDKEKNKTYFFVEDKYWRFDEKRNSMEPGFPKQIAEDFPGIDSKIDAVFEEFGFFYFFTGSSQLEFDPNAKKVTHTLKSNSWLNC
Experimental: One test to determine the inhibition of stromelysin activity is based on its hydrolysis of Substance P using a modified procedure of Harrison et al (Harrison, R. A., Teahan J., and Stein R., A semicontinuous, high performance chromatography based assay for stromelysin, Anal. Biochem. 180, 110-113 (1989)). In this assay, Substance P is hydrolyzed by recombinant human stromelysin to generate a fragment, Substance P 7-11, which can be quantitated by HPLC. In a typical assay, a 10 mM stock solution of a compound to be tested is diluted in the assay buffer to 50 μM, mixed 1:1 with 8 μg recombinant human stromelysin (mol. wt. 45-47 kDa, 2 Units; where 1 Unit produces […] of Substance P 7-11 in 30 minutes) and incubated along with 0.5 mM Substance P in a final volume of 0.125 ml for 30 minutes at 37° C. The reaction is stopped by adding 10 mM EDTA and Substance P 7-11 is quantified on RP-8 HPLC. The IC50 for inhibition of stromelysin activity and Ki are calculated from control reaction without the inhibitor.
Compounds of formula I have an IC50 of about 10 nM to about 5 μM for inhibition of stromelysin activity.

| IC50 [1] [nM] | IC50 (collagenase-3) [nM] | IC50 [2] [nM] | SMILES |
| --- | --- | --- | --- |
| ~200 | ~20 | – | CNC(=O)[C@H](Cc1ccccc1)NC(=O)C1(C(S)CCc2ccccc2)CCCCC1 (stereo partly drawn) [2(d), (S)-2-[N-(1-(1-mercapto-3-phenylpropyl)-cyclohexanecarbonyl)amino]-3-phenylpropionic acid N-methylamide] |
| – | – | ~70 | CCO[C@H]1CC[C@@](CS)(C(=O)N[C@@H](Cc2ccccc2)C(=O)Nc2ccccc2)CC1 [2(e), (S)-2-[N-(1-mercaptomethyl-cis-4-ethoxycyclohexanecarbonyl)amino]-3-phenylpropionic acid N-phenylamide] |
